{"source": "patent US3931244A", "about": "“Thioureas” (John Wyeth & Brother Limited, priority 1973, dated 1976)"}
{"test_system": "appetite", "test": "Anorectic test: length of spaghetti eaten by starved mice during a two hour test period", "format": "in vivo", "conditions": "100 mg/kg per os, dosed one hour before test, overnight-starved male mice, (mean length eaten by control - test)/control × 100", "procedure": "The compounds of the invention may be tested for anorectic properties by the following procedure:\nGroups of 8 or 10 male mice weighing 22-24 grams are starved overnight, although access to water is not restricted. The animals are dosed with the test drug or vehicle alone (control) one hour before they are placed individually into glass jars. The jars (100 mm diameter × 80 mm high) have lids fitted with a glass tube to accommodate a stick of spaghetti of approximate length of 450 mm. The glass tube is arranged such that only 5 mm of spaghetti is exposed for eating by the mouse. The length of spaghetti eaten during a two hour test period is indicative of the appetite of the animal.\nWhen tested by this procedure at a dose of 100 mg/kg per os the following results were obtained: […]", "units": {"% Inhibition of appetite": "%"}}
{"compound": "C[C@@H](Cc1ccccc1)NC(=S)NC(=O)c1ccc(Cl)cc1", "note": "[Example 5, N-(4-Chlorobenzoyl)-N'-(1-methyl-2-phenyl)ethylthiourea]", "% Inhibition of appetite": 41}
{"compound": "O=C(NC(=S)NCCc1ccccc1)c1ccccc1", "note": "[Example 2, N-Benzoyl-N'-phenthylthiourea]", "% Inhibition of appetite": 49}
{"compound": "COc1ccc(C(=O)NC(=S)N[C@@H](C)Cc2ccccc2)cc1", "note": "[Example 3, N-(4-Methoxybenzoyl)-N'-(1-methyl-2-phenyl)ethylthiourea]", "% Inhibition of appetite": 52}
{"compound": "C[C@@H](Cc1ccccc1)NC(=S)NC(=O)c1ccco1", "note": "[Example 6]", "% Inhibition of appetite": 40}
{"compound": "C[C@@H](Cc1ccccc1)NC(=S)NC(=O)c1cccc(C(F)(F)F)c1", "note": "[Example 4, N-(3-Trifluoromethylbenzoyl)-N'-(1-methyl-2-phenyl)-ethylthiourea]", "% Inhibition of appetite": 49}
{"compound": "Cc1cccc(C(=O)NC(=S)N[C@@H](C)Cc2ccccc2)c1", "note": "[Example 7, N-(3-Toluoyl)-N'-(1-methyl-2-phenyl)ethylthiourea]", "% Inhibition of appetite": 53}
{"compound": "C[C@@H](Cc1ccccc1)NC(=S)NC(=O)c1ccccc1", "note": "[Example 1, N-Benzoyl-N'-(1-methyl-2-phenyl)ethylthiourea]", "% Inhibition of appetite": 90}
